Assay results published in publication PMC6292860, “Characterisation of small molecule ligands 4CMTB and 2CTAP as modulators of human FFA2 receptor signalling” (Scientific Reports, 2018).

Assays:
hFFA2 [1] = target: T1, hFFA2 (Homo sapiens, UniProt O15552); experiment: Fluo-4 Direct Ca^2+ flux assay in CHO cells stably expressing hFFA2; type: cell-based; details: for Ca^2+ response (in words): ligand alone
T1 construct: host or cells: CHO-K1
T1 sequence (O15552 1-330): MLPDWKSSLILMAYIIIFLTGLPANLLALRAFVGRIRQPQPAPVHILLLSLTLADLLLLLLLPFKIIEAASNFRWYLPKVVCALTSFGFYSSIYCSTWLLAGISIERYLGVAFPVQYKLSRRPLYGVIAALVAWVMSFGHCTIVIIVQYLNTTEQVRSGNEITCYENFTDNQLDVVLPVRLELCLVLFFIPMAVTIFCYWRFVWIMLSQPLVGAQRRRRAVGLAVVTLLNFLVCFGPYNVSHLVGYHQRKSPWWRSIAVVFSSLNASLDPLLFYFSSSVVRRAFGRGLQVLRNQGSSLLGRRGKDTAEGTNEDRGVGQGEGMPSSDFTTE
Protocol: (§1) CHO-K1, stably expressing human FFA2 (CHO-FFA2) was purchased from DiscoverX Corporation. CHO-FFA2 cells were cultured in a buffer of Ham’s F12, 10% FBS, 1% penicillin streptomycin and 800 μg/mL of G418 (Geneticin) (Invitrogen Life Technologies). Cells were passaged when 70–80% confluent using 0.05% trypsin with 1 mM EDTA in phosphate-buffered saline (PBS), pH 7.4. All cells in culture, once seeded, were incubated at 37 °C with 5% CO2.
(§2) Fluo-4 Direct assay was preformed according to manufacturer’s instructions with additional wash steps and read on a Fluorescent Imaging Plate Reader (FLIPR) (Molecular Devices, California). Briefly, 10,000 cells were seeded/well in 10 μL of media in a 384 well block with a clear bottom plate and incubated overnight at 37 °C. An equivalent volume of 2x Flou-4 Direct calcium reagent was added to each well and incubated for 30 min at 37 °C and a further 30 min at room temperature. Ligand addition was carried out on the FLIPR instrument whilst fluorescence was measured at excitation 494 nm and emission at 516 nm for five minutes to enable capture of the fast calcium response.

hFFA2 [2] = target: T1, hFFA2; experiment: AlphaScreen SureFire pERK1/2 (Thr202/Tyr204) assay in CHO cells stably expressing hFFA2; type: cell-based; details: for Emax: CHO; for pERK1/2 response (in words): ligand alone
Protocol: as §1
(§3) To measure pERK1/2 we utilised the high throughput AlphaScreen SureFire pERK1/2 (Thr202/Tyr204) Assay Kit (PerkinElmer)[42]. Detection of pERK1/2 is enabled by immuno-sandwich capture of endogenous pERK1/2 in cell lysates. Antibody-coated AlphaScreen beads generate a highly amplified signal when near due to binding of pERK1/2. Cells were seeded at 50,000 cells/well in a 96 well tissue culture plate and incubated for 24 hours at 37 °C. Cells were then incubated in serum free media overnight. Test compounds were added to the cells and incubated for 10 min at room temperature before cells were lysed and assayed for pERK1/2 using the AlphaScreen-based detection kit according to the manufacturer’s protocol (PerkinElmer).

hFFA2 [3] = target: T1, hFFA2; experiment: LANCE Ultra cAMP assay, inhibition of forskolin-induced cAMP, in CHO cells stably expressing hFFA2; type: cell-based; details: for Emax: CHO; for EC50: read-out: cAMP pEC50 (converted)
Protocol: as §1
The LANCE Ultra cAMP homogeneous time resolved resonance energy transfer (TR-FRET) immunoassay (PerkinElmer) provides a highly sensitive and robust method for the detection of cAMP. Briefly, cells were re-suspended in stimulation buffer (1 x HBSS, 5 mM HEPES, 0.5 mM IBMX, 0.1% BSA (pH7.4)) and transferred to 384-proxiplate (PerkinElmer) at a density of 2000 cells/well. Cells were stimulated with agonist and forskolin (5 μM), where appropriate, and incubated for 30 min. EucAMP tracer and ULight-anti-cAMP solutions were added to the cells and incubated for 1 hour at room temperature. Time- resolved FRET signals were measured after excitation at 320 nm on the EnVision. All data were normalized to the functional response obtained with 1.67 mM sodium acetate.

parental CHO-K1 cells = experiment: Ca^2+, pERK1/2 and cAMP assays on the parental CHO-K1 cell line (specificity control); type: cell-based, Chinese Hamster; details: highest concentration of ligand
Protocol: These cells were cultured in Ham’s F12, 10% FBS and 1% penicillin streptomycin. Cells were passaged when 70–80% confluent using 0.05% trypsin: EDTA in phosphate-buffered saline (PBS), pH 7.4. All cells in culture, once seeded, were incubated at 37 °C with 5% CO2.
as §2, §3
The LANCE Ultra cAMP homogeneous time resolved resonance energy transfer (TR-FRET) immunoassay (PerkinElmer) provides a highly sensitive and robust method for the detection of cAMP. […] Time- resolved FRET signals were measured after excitation at 320 nm on the EnVision. […]

[4] = tested on: intestinal ischemia reperfusion injury (IRI); experiment: Mouse model of intestinal ischemia reperfusion injury (superior mesenteric artery occlusion); type: in vivo; details: for Circulating neutrophil numbers: IRI groups, WT mice; for Circulating neutrophil numbers / Mucosal (villi) damage, histopathological score of H&E-stained ileum / Neutrophil infiltration into the ileum (esterase-stained neutrophils, myeloperoxidase): oral gavage; for Mucosal (villi) damage, histopathological score of H&E-stained ileum / Neutrophil infiltration into the ileum (esterase-stained neutrophils, myeloperoxidase): WT IRI groups; for Circulating neutrophil counts: sham-operated mice, oral gavage 48 h, 24 h and 1 h prior to surgery, mean ± SEM
From the text: Specific pathogen-free (SPF) conventional C57BL/6J (WT) mice were obtained from the […] (ARC) and maintained at The University of Queensland Biological Resources Animal Facilities under specific pathogen-free conditions.
FFA2^−/− knockout mice were obtained from Monash University and bred at The University of Queensland Biological Resources Animal Facilities under SPF conditions. Male mice 10–12 weeks weighing 20–30 g were used for all experiments. All experiments were performed in accordance with the guidelines and approval of The University of Queensland Animal Ethics Committee.
After 35 minutes the ligature was removed to allow for a reperfusion period of 150 minutes. […] Mice were orally gavaged with ligand 48 hours, 24 hours and 1 hour prior to surgery. Mice were euthanised and small intestinal tissue or whole blood [collected in 1 mg/mL EDTA and 0.1 mg/mL nafamostat mesylate (FUT-175)] was collected for further analysis.

FFA2 = tested on: FFA2; set-up: method as in earlier work; details: cited from earlier work
[5] = + PTX, read-out: pERK1/2 pEC50 (converted)
[6] = + PTX, percentage of the maximal response from acetate
[7] = ligand alone (agonist mode), CHO-hFFA2, expressed as a percentage of the maximal response from acetate
[8] = ligand alone (agonist mode), CHO-hFFA2, read-out: pERK1/2 pEC50 (converted)
[9] = inhibition of forskolin-induced cAMP, ligand alone, expressed as a percentage of the maximal response from acetate
[10] = inhibition of forskolin-induced cAMP, ligand alone (agonist mode), CHO-hFFA2
[11] = 2CTAP + Acetate (2CTAP dose response in the presence of 2 mM acetate, Fig. 6A), read-out: Ca^2+ pEC50 (converted)
[12] = antagonist mode, concentration-dependent decrease in Ca^2+, read-out: Ca^2+ pEC50 (Antagonist) (converted)
[13] = antagonist mode, inhibition of ERK activation by 2 mM acetate, read-out: pERK1/2 pEC50 (Antagonist) (converted)
[14] = 4CMTB at 20 µM on an acetate dose response curve
[15] = 4CMTB below 1 µM on an acetate dose response curve
[16] = ligand alone (agonist mode), CHO-hFFA2

| Compound | Ca^2+ response (in words) (hFFA2 [1]; CHO-hFFA2) | EC50 (hFFA2 [2]; [5]) [nM] | Emax (hFFA2 [2]; [6]) [%] | Emax (hFFA2 [2]; [7]) [%] | EC50 (hFFA2 [2]; [8]) [nM] | Emax (hFFA2 [3]; [9]) [%] | EC50 (hFFA2 [3]; [10]) [nM] | EC50 (hFFA2 [1]; [11]) [nM] | EC50 (hFFA2 [1]; [12]) [nM] | EC50 (hFFA2 [2]; [13]) [nM] | pERK1/2 response (in words) (hFFA2 [2]; CHO-hFFA2) | forskolin-induced cAMP response (in words) (hFFA2 [3]; ligand alone, CHO-hFFA2) | Response in parental CHO-K1 cells (parental CHO-K1 cells) | Circulating neutrophil numbers [4] | Neutrophil infiltration into the ileum (esterase-stained neutrophils, myeloperoxidase) [4] | other results |
| --- | --- | --- | --- | --- | --- | --- | --- | --- | --- | --- | --- | --- | --- | --- | --- | --- |
| O=C(O)CC(C(=O)Nc1nc(-c2ccccc2Cl)cs1)c1ccccc1 (racemic) [R/S-2CTAP, 4-((4-(2-chlorophenyl)thiazole-2-yl)amino)-4oxo-3-phenylbutanoic acid] | concentration-dependent decrease in Ca^2+ |  |  |  |  |  |  | 631 | 1000 | 15800 | no effect | no effect | No response | comparable to vehicle control IRI-groups | did not reduce neutrophil infiltration below the IRI group | Protective effects in IRI in the absence of FFA2 ([4]; FFA2^−/− mice, IRI): abolished; Mucosal (villi) damage, histopathological score of H&E-stained ileum [4]: mucosal damage was significantly reduced; Concentration of maximal response in the GTPγS assay (FFA2): 60 nM |
| CC(C)[C@@H](C(=O)Nc1nccs1)c1ccc(Cl)cc1 [R-4CMTB, 2-(4-chlorophenyl)-3-methyl-N-(thiazole-2-yl)butanamide] | no effect | 20000 | 16 | 60 | 10000 | 74 | 6310 |  |  |  |  |  |  | comparable to vehicle control IRI-groups | did not reduce neutrophil infiltration below the IRI group | Allosteric modulation of acetate Ca^2+ response (hFFA2 [1]; [14]): mild effect on the potency of acetate but did not increase the efficacy; Allosteric modulation of acetate Ca^2+ response (hFFA2 [1]; [15]): negative allosteric modulators; Circulating neutrophil counts [4]: 0.81 × 10^6 ± 0.11 |
| O=C(O)C[C@@H](C(=O)Nc1nc(-c2ccccc2Cl)cs1)c1ccccc1 [R-2CTAP, 4-((4-(2-chlorophenyl)thiazole-2-yl)amino)-4oxo-3-phenylbutanoic acid] | decreased Ca^2+ |  |  |  |  |  |  | 251 | 251 | 2510 | no effects | no effects |  |  |  |  |
| CC(=O)O [Acetate] |  |  |  |  |  |  |  |  |  |  |  |  | No response |  |  | Ca^2+ pEC50 (hFFA2 [1]; [16]): 3.8; Ca^2+ Emax (hFFA2 [1]; [7]): 100; pERK1/2 pEC50 (hFFA2 [2]; [16]): 3.6; pERK1/2 Emax (hFFA2 [2]; [7]): 100; cAMP pEC50 (hFFA2 [3]; [10]): 3.9; cAMP Emax (hFFA2 [3]; [9]): 100 |

The next lines start with results.

| Ca^2+ response (in words) (hFFA2 [1]; CHO-hFFA2) | EC50 (hFFA2 [2]; [5]) [nM] | Emax (hFFA2 [2]; [6]) [%] | Emax (hFFA2 [2]; [7]) [%] | EC50 (hFFA2 [2]; [8]) [nM] | Emax (hFFA2 [3]; [9]) [%] | EC50 (hFFA2 [3]; [10]) [nM] | EC50 (hFFA2 [1]; [11]) [nM] | EC50 (hFFA2 [1]; [12]) [nM] | EC50 (hFFA2 [2]; [13]) [nM] | pERK1/2 response (in words) (hFFA2 [2]; CHO-hFFA2) | forskolin-induced cAMP response (in words) (hFFA2 [3]; ligand alone, CHO-hFFA2) | Compound | Response in parental CHO-K1 cells (parental CHO-K1 cells) | Circulating neutrophil numbers [4] | Neutrophil infiltration into the ileum (esterase-stained neutrophils, myeloperoxidase) [4] | other results |
| --- | --- | --- | --- | --- | --- | --- | --- | --- | --- | --- | --- | --- | --- | --- | --- | --- |
| did not induce a Ca^2+ response | 20000 | 20 | 85 | 1580 | 83 | 100 |  |  |  |  |  | CC(C)C(C(=O)Nc1nccs1)c1ccc(Cl)cc1 (racemic) [R/S-4CMTB, 2-(4-chlorophenyl)-3-methyl-N-(thiazole-2-yl)butanamide] | No response |  |  |  |
|  | 15800 | 22 | 102 | 794 | 99 | 158 |  |  |  |  |  | CC(C)[C@H](C(=O)Nc1nccs1)c1ccc(Cl)cc1 [S-4CMTB, 2-(4-chlorophenyl)-3-methyl-N-(thiazole-2-yl)butanamide] |  | comparable to vehicle control IRI-groups | increased neutrophil infiltration into the villi | Allosteric modulation of acetate Ca^2+ response (hFFA2 [1]; [14]): increased both the potency and efficacy of acetate; Allosteric modulation of acetate Ca^2+ response (hFFA2 [1]; [15]): negative allosteric modulators; Emax (hFFA2 [1]; [7]): 55%; EC50 (hFFA2 [1]; ligand alone (agonist mode), CHO-hFFA2, read-out: Ca^2+ pEC50 (converted)): 2000 nM; Mucosal (villi) damage, histopathological score of H&E-stained ileum [4]: did not reduce villi damage; Circulating neutrophil counts [4]: 0.92 × 10^6 ± 0.07 |
| decreased Ca^2+ |  |  |  |  |  |  | 1580 | 2000 | 39800 | no effects | no effects | O=C(O)C[C@H](C(=O)Nc1nc(-c2ccccc2Cl)cs1)c1ccccc1 [S-2CTAP, 4-((4-(2-chlorophenyl)thiazole-2-yl)amino)-4oxo-3-phenylbutanoic acid] |  |  |  |  |
